{
  "source": "patent US20130217712A1",
  "about": "“[…] FOR EGFR INHIBITOR TREATMENT” (Hoffmann-La Roche Inc., priority 2007, published 2013)",
  "key": {"[1]": {"system": "patients with advanced NSCLC following failure of at least one prior chemotherapy regimen", "assay": "Open-label Phase II predictive marker identification study of Tarceva monotherapy, response by RECIST and survival", "type": "in vivo, human", "conditions": "all enrolled patients n=264; oral 150 mg/day", "description": "The selection of this dose was based on pharmacokinetic parameters, as well as the safety and tolerability profile of this dose observed in Phase I, II and III trials in heavily pre-treated patients with advanced cancer. Drug levels seen in the plasma of patients with cancer receiving the 150 mg/day dose were consistently above the average plasma concentration of 500 ng/ml targeted for clinical efficacy.\nThis was an open-label, predictive marker identification Phase II study. The study was conducted in approximately 26 sites in about 12 countries. 264 patients with advanced NSCLC following failure of at least one prior chemotherapy regimen were enrolled over a 12 month period. […] Dose reductions were permitted based on tolerability to drug therapy. Clinical and laboratory parameters were assessed to evaluate disease control and toxicity. Treatment continued until disease progression, unacceptable toxicity or death. The study design is depicted in FIG. 1.\nThe RECIST (Uni-dimensional Tumor Measurement) criteria were used to evaluate response. […]\nA regular status check every 3 months was performed either by a patient's visit to the clinic or by telephone. All deaths were recorded. […]"}, "[2]": {"conditions": "patients with cancer, 150 mg/day dose; 500 ng/ml is the average concentration targeted for clinical efficacy; cited from earlier work"}},
  "data": [
    {"smiles": "C#Cc1cccc(Nc2ncnc3cc(OCCOC)c(OCCOC)cc23)c1", "note": "[Erlotinib, erlotinib]", "values": [
      {"measurement": "Median overall survival", "setting": "[1]", "value": "7.6 (CI 7-9) months"},
      {"measurement": "median progression-free survival", "setting": "[1]", "value": "11.3 (CI 8-12) weeks"},
      {"measurement": "drug level in plasma", "setting": "[2]", "value": "> 500", "unit": "ng/mL"}
    ]}
  ]
}
